Experimental findings from US20210000750A1, “ENGINEERED NANOVESICLES AS CHECKPOINT BLOCKADE FOR CANCER IMMUNOTHERAPY” (NORTH CAROLINA STATE UNIVERSITY, priority 2018, published 2021) are described below.

Each structure is given as a SMILES string.

One series deals with B16F10 melanoma tumor. Briefly: In vivo anti-tumor efficacy study of NVs. More on the design: species or system C57BL/6 mice. As to conditions: seven-group study, every 3 days for five cycles. How it is done:
Female C57BL/6 mice were purchased from Jackson Lab (USA). All mouse studies were performed in the context of an animal protocol approved by the Institutional Animal Care and Use Committee at North Carolina State University and University of North Carolina at Chapel Hill. Mice were weighed and randomly divided into different groups. 5 d after 1×10^6 B16F10 tumor cells subcutaneously transplanted into the abdomen of mice (the tumor reaches 40-50 mm^3), PBS, Free nanovesicles (25 mg/kg), PD-1 nanovesicles (25 mg/kg), 1-MT (2.5 mg/kg), 1-MT loaded PD-1 nanovesicles (25 mg/kg), anyi-PD-L1 antibody (2 mg/kg) were administered into mice by tail-vein injection. Tumor incidences were monitored by physical examination and sizes were also measured by digital caliper over time. Tumors were measured by using a vernier calipers and the volume (V) was calculated to be V=d^2×D/2, where d is the shortest and the D is longest diameter of the tumor in mm respectively. To assess potential toxicities, mice were monitored daily for weight loss. For survival assays, the experiments were performed separately.
Bioluminescence images were collected with a Xenogen IVIS Spectrum Imaging System. Living Image software (Xenogen) was used to acquire the data 10 min after intraperitoneal injection of d-luciferin (Pierce) in DPBS (15 mg/mL) into animals (10 μL/g of body weight).

The test system of a further series is Tregs. Format: in vivo, C57BL/6 mice. As to conditions: five-group cyclophosphamide study.
Another series concerns CD8^+ TILs. The series is classed as in vivo, C57BL/6 mice. The note with it: five-group cyclophosphamide study. As to the method: Tumors were dissected from the mice and snap frozen in optimal cutting medium (O.C.T.). Several micrometer sections were cut using a cryotome and mounted on slides. The frozen tumor sections were incubated in PBS for 15 min to remove the embedding medium. The specimens were blocked with the buffer containing 3% BSA. Subsequently, the specimens incubated with CD4 and CD8 primary antibodies (1:50 in 3% BSA) overnight and then washed three times with PBS for 5 min each. After that the specimens were incubated with TRITC secondary antibody (KPL) diluted in 3% BSA at room temperature in the dark for 1 h. Finally, the nucleus was stained with DAPI, and the tissue was washed three times with PBS for 5 min each. Confocal microscopy was performed on a FLUO-VIEW laser scanning confocal microscope […] in sequential scanning mode using a 40×objective.

The subject of series [1] is B16F10 melanoma residual tumor. As to the kind of experiment: In vivo anti-tumor efficacy, incomplete-tumor-resection model. More on the design: species or system C57BL/6 mice. The note with it: five-group cyclophosphamide study. An excerpt:
(§1) B16F10 luciferase-tagged B16F10 (1×10^6) melanoma tumor cells were transplanted into the right flank of C57BL/6 mice. Eight days after tumor inoculation, the tumors volume reach around ˜150 mm^3. These tumors were then resected, leaving about 15 mm^3 (10%) tumor volume to mimic the residual tumors in the surgical bed. Briefly, animals were anesthetized in an induction chamber using isoflurane (up to 5% for induction; 1-3% for maintenance), and anaesthesia was maintained via a nose cone. The tumor area was clipped and aseptically prepped. Sterile instruments were used to remove approximately 90% of the tumor. The wound was closed using an Autoclip wound closing system. The mice were randomly divided into several groups of eight mice (n=8) as indicated. The mice firstly were intravenously injected with different treatment formulations: PBS, free platelets […], PD-1 platelets (˜2×10^8), cyclophosphamide (20 mg/kg), cyclophosphamide loaded free platelets (˜2×10^8) or cyclophosphamide loaded PD-1 platelets (˜2×10^8). Immediately after the injection, the surgery was carried out within 10 min one mouse by one mouse. The tumor burden was monitored via the bioluminescence of the cancer cells.

The conditions of series [2]: five-group cyclophosphamide study.
Source text: as §1

Consider `Cn1cc(C[C@H](N)C(=O)O)c2ccccc21` [1-MT, 1-methyl-tryptophan], for which the “suppression of tumor growth” value in the series on B16F10 melanoma tumor is listed as “limited suppression of tumor growth”.

As to `O=P1(N(CCCl)CCCl)NCCCO1` (centres unmarked) [cyclophosphamide], in the series on Tregs, the “Tregs within the tumor” value is reported as “selectively depleted Tregs”. In the series on CD8^+ TILs, the “frequency of Ki67+ T cells” value is “increased the frequency”. In series [1], the tumor progression result is on record as “limited results”. For the same compound, the “hair growth and weight loss” value in series [2] is “delayed hair growth in the abdomen and slighted weight loss”.
